Consider 1 compound from patent US20250353835A1, “N-TETRAZOLYL ARYL UREA-BASED DERIVATIVES, PREPARATION METHOD THEREFOR, AND USE THEREOF” (Hangzhou Yirui Pharmaceutical Technology Co., Ltd, priority 2022, published 2025).

What all share (assay type): in vitro ADME
Series [1] is described as follows: Liver microsomal metabolism in vitro, rat LM clearance. Particulars: rat liver microsomes in vitro. The protocol: (§1) In addition, the LC-MS/MS method was used to determine the substrate metabolites of 5 major subtypes of human liver microsomal CYP450 enzymes (including CYP1A2, CYP2D6, CYP2C8, CYP2C9, and CYP3A4). The substrate method was used to determine the activity of human liver microsomal CYP450 enzyme. The established incubation system was verified using known inhibitors to investigate the inhibitory effect of the compound on CYP450 enzyme. For the enzyme induction test, a primary cultured human hepatocyte incubation system was used. 3-methylcholanthrene, phenobarbital, and rifampicin were used as positive control inducers of CYP1A2, CYP2B6, and CYP3A4, and phenacetin, bupropion, and testosterone were used as the substrate for CYP1A2, CYP2B6, and CYP3A4. The CYP450 enzyme activity was calculated by measuring the generation rate of 3 specific substrate metabolites in the incubation solution. Meanwhile, the total RNA was extracted from the human hepatocytes after incubation, and the real-time fluorescence quantitative PCR method was used to determine the mRNA expression level of CYP1A2, […], and CYP3A4. The enzyme activity and mRNA transcription level were used as endpoints to investigate the inductive effect of the compound on human liver P450 isoenzymes CYP1A2, […], and CYP3A4. The liver microsomal metabolism parameters in vitro are shown in Table 2B3 taking Compound 8 as an example.

In a further series the target is T1, CYP2D6 (Homo sapiens, UniProt P10635).
T1 construct: The substrate method was used to determine the activity of human liver microsomal CYP450 enzyme; from tissue; host or cells: human liver microsomes
T1 sequence (P10635 whole entry): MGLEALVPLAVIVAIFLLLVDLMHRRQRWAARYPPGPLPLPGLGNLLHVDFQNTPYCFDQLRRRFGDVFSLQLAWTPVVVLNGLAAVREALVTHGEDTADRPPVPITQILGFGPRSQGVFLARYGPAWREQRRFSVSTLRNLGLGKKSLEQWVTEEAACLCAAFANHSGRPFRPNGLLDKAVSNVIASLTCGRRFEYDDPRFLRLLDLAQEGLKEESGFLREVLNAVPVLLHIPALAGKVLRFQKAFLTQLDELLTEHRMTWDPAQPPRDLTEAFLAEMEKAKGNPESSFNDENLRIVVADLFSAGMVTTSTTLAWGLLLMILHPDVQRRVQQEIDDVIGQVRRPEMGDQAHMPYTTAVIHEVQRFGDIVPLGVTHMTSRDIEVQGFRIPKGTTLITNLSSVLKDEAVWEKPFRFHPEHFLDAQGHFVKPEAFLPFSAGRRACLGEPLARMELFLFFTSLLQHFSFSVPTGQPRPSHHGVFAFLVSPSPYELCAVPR
Kind of series: CYP450 inhibition in human liver microsomes (substrate method, LC-MS/MS). Particulars: read-out: CYP inhibition IC50 [μM], 2D6. The method, then: as §1

For the next series, the target named is T2, CYP1A2 (Homo sapiens, UniProt P05177).
T2 construct: The substrate method was used to determine the activity of human liver microsomal CYP450 enzyme; from tissue; host or cells: human liver microsomes
T2 sequence (P05177 1-516): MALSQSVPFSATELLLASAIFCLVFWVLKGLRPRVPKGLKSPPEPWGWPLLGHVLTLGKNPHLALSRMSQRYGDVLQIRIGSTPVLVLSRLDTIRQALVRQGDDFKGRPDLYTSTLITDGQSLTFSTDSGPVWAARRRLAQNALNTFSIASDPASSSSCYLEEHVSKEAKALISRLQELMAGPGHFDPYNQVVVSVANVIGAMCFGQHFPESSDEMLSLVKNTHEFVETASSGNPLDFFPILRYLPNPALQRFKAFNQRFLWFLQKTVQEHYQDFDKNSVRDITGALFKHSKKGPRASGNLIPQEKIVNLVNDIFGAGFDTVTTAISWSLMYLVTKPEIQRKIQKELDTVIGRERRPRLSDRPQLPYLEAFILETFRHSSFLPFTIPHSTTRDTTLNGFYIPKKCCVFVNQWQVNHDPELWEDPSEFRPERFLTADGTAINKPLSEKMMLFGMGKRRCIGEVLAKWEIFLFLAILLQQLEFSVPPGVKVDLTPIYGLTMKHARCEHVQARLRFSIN
The series is described as above. Particulars: read-out: CYP inhibition IC50 [μM], 1A2. The method, then:
as §1

The next series deals with T3, CYP2C9 (Homo sapiens, UniProt P11712).
T3 construct: The substrate method was used to determine the activity of human liver microsomal CYP450 enzyme; from tissue; host or cells: human liver microsomes
T3 sequence (P11712 whole entry): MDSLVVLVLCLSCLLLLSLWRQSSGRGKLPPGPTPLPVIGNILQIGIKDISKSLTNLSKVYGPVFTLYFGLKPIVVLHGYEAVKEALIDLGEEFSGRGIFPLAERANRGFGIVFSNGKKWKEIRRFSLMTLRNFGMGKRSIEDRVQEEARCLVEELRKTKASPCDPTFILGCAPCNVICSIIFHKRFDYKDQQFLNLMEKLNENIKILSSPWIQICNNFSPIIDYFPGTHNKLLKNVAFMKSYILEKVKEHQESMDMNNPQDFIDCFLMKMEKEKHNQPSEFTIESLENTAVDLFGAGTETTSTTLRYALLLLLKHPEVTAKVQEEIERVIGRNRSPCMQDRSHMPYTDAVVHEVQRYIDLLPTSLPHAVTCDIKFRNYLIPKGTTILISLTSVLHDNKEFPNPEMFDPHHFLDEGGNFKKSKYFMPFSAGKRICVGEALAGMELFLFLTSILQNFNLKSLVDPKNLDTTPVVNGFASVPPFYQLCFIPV
Described as above. Particulars: read-out: CYP inhibition IC50 [μM], 2C9. The protocol:
as §1

For another series, the target named is T4, CYP3A4 (Homo sapiens, UniProt P08684).
T4 construct: from tissue; host or cells: human liver microsomes
T4 sequence (P08684 whole entry): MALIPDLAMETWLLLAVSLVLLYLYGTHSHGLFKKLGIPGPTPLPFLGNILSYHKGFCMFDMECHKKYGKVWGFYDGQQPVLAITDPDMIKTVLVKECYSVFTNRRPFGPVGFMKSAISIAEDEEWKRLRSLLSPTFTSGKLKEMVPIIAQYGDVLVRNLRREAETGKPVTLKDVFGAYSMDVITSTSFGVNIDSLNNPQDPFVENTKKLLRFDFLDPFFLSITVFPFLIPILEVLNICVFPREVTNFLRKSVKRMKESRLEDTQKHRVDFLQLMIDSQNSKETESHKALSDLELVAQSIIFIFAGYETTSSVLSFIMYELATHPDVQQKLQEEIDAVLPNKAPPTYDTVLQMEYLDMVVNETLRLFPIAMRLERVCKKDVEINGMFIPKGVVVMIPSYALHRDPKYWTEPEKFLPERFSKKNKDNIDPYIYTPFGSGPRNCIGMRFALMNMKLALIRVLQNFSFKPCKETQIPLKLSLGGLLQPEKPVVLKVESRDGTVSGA
Described as above. Particulars: read-out: CYP inhibition IC50 [μM], 3A4. The protocol:
as §1

The target of another series is T5, CYP2C8 (Homo sapiens, UniProt P10632).
T5 construct: The substrate method was used to determine the activity of human liver microsomal CYP450 enzyme; from tissue; host or cells: human liver microsomes
T5 sequence (P10632 1-490): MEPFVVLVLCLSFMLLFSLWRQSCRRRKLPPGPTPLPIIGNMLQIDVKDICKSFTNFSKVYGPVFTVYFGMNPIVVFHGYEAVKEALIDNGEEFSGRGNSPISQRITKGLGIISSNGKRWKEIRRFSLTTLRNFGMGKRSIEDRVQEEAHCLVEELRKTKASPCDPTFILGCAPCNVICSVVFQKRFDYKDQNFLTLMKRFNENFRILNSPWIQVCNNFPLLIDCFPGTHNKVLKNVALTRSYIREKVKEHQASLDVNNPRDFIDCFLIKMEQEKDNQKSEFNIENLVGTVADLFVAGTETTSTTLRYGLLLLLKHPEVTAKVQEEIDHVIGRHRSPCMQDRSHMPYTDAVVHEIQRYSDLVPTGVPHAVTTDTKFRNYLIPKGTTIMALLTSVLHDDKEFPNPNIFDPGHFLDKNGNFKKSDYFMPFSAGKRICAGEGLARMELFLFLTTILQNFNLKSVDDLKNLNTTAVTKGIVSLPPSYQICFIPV
Described as above. Particulars: read-out: CYP inhibition IC50 [μM], 2C8. The method, then: as §1

Series [2] is described as follows: Liver microsomal metabolism in vitro, human LM clearance. Particulars: human liver microsomes in vitro. The method, then: as §1

On to `CCOc1ccc(-c2c(F)cc(NC(=O)N3CCC(C(C)(C)C)CC3)cc2-c2nn[nH]n2)cn1` [Compound 8, 4-(tert-butyl)-N-(4-(6-ethoxypyrid-3-yl)-3-fluoro-5-(2H-tetrazol-5-yl)phenyl)piperidine-1-carboxamide], for which the “Rat LM clearance” value in series [1] was 9.83 mL/min/kg. In addition, the IC50 on CYP2D6, on CYP1A2, on CYP2C9, on CYP3A4 and at CYP2C8 was 50 µM in each case. Moreover, the “Human LM clearance” value in series [2] was 8.5 mL/min/kg.
